Laboratory results published in US12637414B2, “Arylamides and methods of use thereof” (Genzyme Corporation, priority 2019, dated 2026).

Target: T1, human Cystic Fibrosis Transmembrane Conductance Regulator (CFTR) harboring the ΔF508 mutation (Homo sapiens, UniProt P13569, DEL508-508)
T1 construct: expressed in transfected cells; host or cells: H441 carcinoma line (G418 selection)
Assay: H441 cell Emax and EC50: HRP-tagged ΔF508-CFTR cell surface luminescence assay
Type: cell-based
Settings: H441 cells expressing ΔF508-CFTR-HRP, 27° C., two nights; for EC50: 15-point dose-response, top 24.5 μM; for Emax: NCI-H441, % of maximum VX809 signal
Text: Two cell lines were used, the H441 carcinoma line and the CFHBE41o-(41o-) human bronchial epithelial line. Both cell lines expressed human Cystic Fibrosis Transmembrane Conductance Regulator (CFTR) harboring the ΔF508 mutation and with an in-frame fusion in CFTR extracellular loop 4 of Horse Radish Peroxidase (HRP) under control of the CMV promoter. In the presence of the HRP tag, ΔF508-CFTR transported to the cell surface was detectable upon addition of an HRP substrate (Luminata Forte). Both cell types were cultivated at 37° C. with CO2.
For both cell types, the medium was changed every other day unless the culture was at low % confluence. Cells were used for the assays at ˜75% confluence.
To a polypropylene (PP) 384-well plate, 15 μls DMSO was added to all wells in columns 1-22 and 24 (low Control). 15 μls of 260 μM VX809 (Lumacaftor), Selleckchem S1565, was added to column 23 wells (high Control). 15 μls of 10 mM test compound or VX809 (control) were added to wells of row A. Serial dilutions of Row A compound were performed 2×15 μls in rows A through O (15-point).
A PP, 384-well plate containing the appropriate cell culture medium was prepared for each assay plate with 100 μls per well. For the doxycycline-induced 41o-cells, doxycycline for both the assay plate and the medium dilution plate was added at 0.0005 mg/ml to the medium.
Both cell lines were plated for the assay at 30 uls per 384-well at 3.4×10^e5 cells per ml (˜10K cells/well). H441 cells were plated on opaque, white, Corning plate 3704. 41o-cells were plated on collagen-coated opaque, white, Corning plate 356665. For 41o-cells, doxycycline was added to the medium.
Using FX (Beckman) protocol, 10 uls diluted compound or medium was added per well to the Assay Plate as: 2 μls DMSO Dilution plate well is diluted in 100 uls of the Medium Dilution Plate well, mixed, and 10 uls is transferred to the Assay Plate.
The final assay dilution series is 24.5, 12.3, 6.1, 3.1, 1.5, 0.8, 0.4, 0.2, 0.1, 0.05, 0.02, 0.01, 0.006, 0.003, 0.001 and 0 μM. The 41o-assay plates were incubated at 37° C. w/CO2, the H441 assay plates were incubated at 27° C. w/CO2, each overnight for two nights.
After being brought to room temperature, the assay plate liquid was removed. 30 μls of Luminata Forte (Millipore ELLUF0100) was added per well and incubated at room temperature for 10 min. The plates were then read on a Topcount, protocol LumiMatti (CPS, luminescence). The data was analyzed for % of maximum, maximum VX809 signal, and EC50 using Pearl and SPEED tools.

T1 sequence (P13569 with tags, fused parts or gaps DEL508-508): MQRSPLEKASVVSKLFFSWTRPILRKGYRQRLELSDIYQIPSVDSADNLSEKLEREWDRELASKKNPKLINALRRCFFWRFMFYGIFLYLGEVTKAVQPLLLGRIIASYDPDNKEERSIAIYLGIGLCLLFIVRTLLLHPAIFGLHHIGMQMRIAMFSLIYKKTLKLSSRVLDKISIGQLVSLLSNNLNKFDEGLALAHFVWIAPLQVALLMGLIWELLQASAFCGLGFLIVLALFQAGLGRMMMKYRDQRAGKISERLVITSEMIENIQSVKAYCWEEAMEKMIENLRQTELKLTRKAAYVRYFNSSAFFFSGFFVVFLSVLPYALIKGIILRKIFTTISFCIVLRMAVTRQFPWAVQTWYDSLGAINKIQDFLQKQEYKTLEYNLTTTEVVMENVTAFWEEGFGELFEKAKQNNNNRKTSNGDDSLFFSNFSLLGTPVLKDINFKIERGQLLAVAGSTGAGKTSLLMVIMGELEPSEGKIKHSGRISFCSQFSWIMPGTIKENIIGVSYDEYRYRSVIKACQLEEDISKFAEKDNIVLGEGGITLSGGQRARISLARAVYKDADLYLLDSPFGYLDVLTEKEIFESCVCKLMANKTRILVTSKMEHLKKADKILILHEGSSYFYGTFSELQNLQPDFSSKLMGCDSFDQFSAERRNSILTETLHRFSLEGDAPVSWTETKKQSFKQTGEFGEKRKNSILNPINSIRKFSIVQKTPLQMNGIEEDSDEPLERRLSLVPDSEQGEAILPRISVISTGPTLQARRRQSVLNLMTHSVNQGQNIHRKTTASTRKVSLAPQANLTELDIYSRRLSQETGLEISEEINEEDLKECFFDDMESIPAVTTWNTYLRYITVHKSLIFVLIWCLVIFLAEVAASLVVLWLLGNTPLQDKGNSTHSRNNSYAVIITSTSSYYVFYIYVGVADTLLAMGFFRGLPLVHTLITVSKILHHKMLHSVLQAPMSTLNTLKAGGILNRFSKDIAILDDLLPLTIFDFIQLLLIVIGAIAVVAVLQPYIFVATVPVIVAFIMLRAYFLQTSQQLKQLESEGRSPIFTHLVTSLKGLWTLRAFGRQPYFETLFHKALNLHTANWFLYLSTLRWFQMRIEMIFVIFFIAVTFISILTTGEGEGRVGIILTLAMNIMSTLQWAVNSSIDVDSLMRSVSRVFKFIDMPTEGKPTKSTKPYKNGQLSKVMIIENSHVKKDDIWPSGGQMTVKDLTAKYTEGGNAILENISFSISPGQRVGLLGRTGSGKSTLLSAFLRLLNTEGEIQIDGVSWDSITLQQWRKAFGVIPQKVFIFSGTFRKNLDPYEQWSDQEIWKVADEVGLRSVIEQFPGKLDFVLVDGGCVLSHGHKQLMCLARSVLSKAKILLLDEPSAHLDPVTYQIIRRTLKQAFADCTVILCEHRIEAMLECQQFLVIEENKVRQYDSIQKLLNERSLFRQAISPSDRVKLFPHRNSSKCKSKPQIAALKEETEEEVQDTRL

| SMILES | EC50 [nM] | Emax [%] |
| --- | --- | --- |
| O=C(N[C@H](C(=O)O)C12CC3CC(CC(C3)C1)C2)c1ccc2ccccc2c1OCc1nc(C(F)(F)F)cs1 [compound 100, (2S)-2-(1-adamantyl)-2-[[1-[[4-(trifluoromethyl)thiazol-2-yl]methoxy]naphthalene-2-carbonyl]amino]acetic acid] | 2880 | 55.8 |
| COc1ccc2c(OCc3ccc(SC(F)(F)F)cc3)c(C(=O)N[C@H](C(=O)O)C34CC5CC(CC(C5)C3)C4)ccc2c1 [compound 83] | 947 | 16.4 |
| O=C(N[C@H](C(=O)O)C12CC3CC(CC(O)(C3)C1)C2)c1ccc2sccc2c1OCc1ccc(OC(F)(F)F)cc1 [compound 109, (2S)-2-(3-hydroxy-1-adamantyl)-2-[[4-[[4-(trifluoromethoxy)phenyl]methoxy]benzothiophene-5-carbonyl]amino]acetic acid] | 1760 | 121 |
| O=C(N[C@H](C(=O)O)C12CC3CC(CC(C3)C1)C2)c1ccc2cccnc2c1OCC1CCCCC1 [compound 5] | 1160 | 249 |
| O=C(N[C@H](C(=O)O)C12CC3CC(CC(O)(C3)C1)C2)c1ccc2ccccc2c1OCC1CCC(F)(F)CC1 [compound 53] | 7220 | 74.1 |
| O=C(N[C@H](C(=O)O)C12CC3CC(CC(C3)C1)C2)c1ccc2sccc2c1OCc1nc(C(F)(F)F)cs1 [compound 115, (2S)-2-(1-adamantyl)-2-[[4-[[4-(trifluoromethyl)thiazol-2-yl]methoxy]benzothiophene-5-carbonyl]amino]acetic acid] | 2840 | 106 |
| O=C(N[C@H](C(=O)O)C12CC3CC(CC(O)(C3)C1)C2)c1ccc2cccnc2c1OCc1ccc(C(F)(F)F)cc1 [compound 22] | 3660 | 175 |
| O=C(N[C@H](C(=O)O)C12CC3CC(CC(O)(C3)C1)C2)c1sc2ccccc2c1OCc1ccc(OC(F)(F)F)cc1 [compound 13] | 3480 | 87.3 |
| O=C(N[C@H](C(=O)O)C12CC3CC(CC(C3)C1)C2)c1ccc2ccccc2c1OCc1ccc(OC(F)(F)F)cc1 [compound 8] | 1400 | 176 |
| CS(=O)(=O)CCOC12CC3CC(C1)CC([C@H](NC(=O)c1ccc4cc(F)ccc4c1OCc1ccc(C(F)(F)F)cc1)C(=O)O)(C3)C2 [compound 39] | 2160 | 102 |
| O=C(N[C@H](C(=O)O)C12CC3CC(CC(C3)C1)C2)c1ccc2cc(F)ccc2c1OCc1ccc(OC(F)(F)F)cc1 [compound 88] |  | -9.7 |
| CS(=O)(=O)c1ccc(COc2c(C(=O)N[C@H](C(=O)O)C34CC5CC(CC(C5)C3)C4)ccc3ccccc23)cc1 [compound 58] | 15800 | 30.1 |
| O=C(N[C@H](C(=O)O)C12CC3CC(CC(O)(C3)C1)C2)c1ccc2sccc2c1OCC1CCC(F)(F)CC1 [compound 108, (2S)-2-[[4-[(4,4-difluorocyclohexyl)methoxy]benzothiophene-5-carbonyl]amino]-2-(3-hydroxy-1-adamantyl)acetic acid] | 11400 | 78.4 |
| O=C(N[C@H](C(=O)O)C12CC3CC(CC(C3)C1)C2)c1ccc2sccc2c1OCc1ccc(OC(F)F)cc1 [compound 107, (2S)-2-(1-adamantyl)-2-[[4-[[4-(difluoromethoxy)phenyl]methoxy]benzothiophene-5-carbonyl]amino]acetic acid] |  | -7.7 |
| O=C(N[C@H](C(=O)O)C12CC3CC(CC(C3)C1)C2)c1ccc2ccccc2c1OCC#CC1CC1 [compound 101, (2S)-2-(1-adamantyl)-2-[[1-(3-cyclopropylprop-2-ynoxy)naphthalene-2-carbonyl]amino]acetic acid] | 2700 | 145 |
| O=C(N[C@H](C(=O)O)C12CC3CC(CC(C3)C1)C2)c1ccc2ccccc2c1OCC1(C(F)(F)F)CC1 [compound 102, (2S)-2-(1-adamantyl)-2-[[1-[[1-(trifluoromethyl)cyclopropyl]methoxy]naphthalene-2-carbonyl]amino]acetic acid] | 18000 | 53.1 |
| O=C(N[C@H](C(=O)O)C12CC3CC(CC(C3)C1)C2)c1ccc2ccccc2c1OCc1nc2ccccc2s1 [compound 65] | 1320 | 198 |
| O=C(N[C@H](C(=O)O)C12CC3CC(CC(C3)C1)C2)c1ccc2sccc2c1OCC1CCC(F)(F)CC1 [compound 106, (2S)-2-(1-adamantyl)-2-[[4-[(4,4-difluorocyclohexyl)methoxy]benzothiophene-5-carbonyl]amino]acetic acid] | 3620 | 156 |
| CN(Cc1ccc(C(F)(F)F)cc1)c1c(CC(=O)N[C@H](C(=O)O)C23CC4CC(CC(C4)C2)C3)ccc2ccccc12 [compound 134, (2S)-2-(1-adamantyl)-2-[[2-[1-[methyl-[[4-(trifluoromethyl)phenyl]methyl]amino]-2-naphthyl]acetyl]amino]acetic acid] |  | -17.5 |

Results, then the compound that gave them:

| EC50 [nM] | Emax [%] | SMILES |
| --- | --- | --- |
| 755 | 100 | O=C(N[C@H](C(=O)O)C12CC3CC(CC(O)(C3)C1)C2)c1ccc2cc(F)ccc2c1OCc1ccc(C(F)(F)F)cc1 [compound 33] |
| 131 | 56.2 | COc1ccc2c(OCc3ccc(C(F)(F)F)cc3)c(C(=O)N[C@H](C(=O)O)C34CC5CC(CC(C5)C3)C4)ccc2c1 [compound 38] |
| 939 | 142 | O=C(N[C@H](C(=O)O)C12CC3CC(CC(C3)C1)C2)c1ccc2cc(F)ccc2c1OCC1CCCCC1 [compound 45] |
| 401 | 157 | CC(C)OC12CC3CC(C1)CC([C@H](NC(=O)c1ccc4ccccc4c1OCc1ccc(C(F)(F)F)cc1)C(=O)O)(C3)C2 [compound 11] |
| 109 | 66 | O=C(O)[C@@H](N1CN(Cc2ccc(C(F)(F)F)cc2)c2c(ccc3ccccc23)C1=O)C12CC3CC(CC(C3)C1)C2 [compound 125, (2S)-2-(1-adamantyl)-2-[4-oxo-1-[[4-(trifluoromethyl)phenyl]methyl]-2H-benzo[h]quinazolin-3-yl]acetic acid] |
| 350 | 204 | O=C(N[C@H](C(=O)O)C12CC3CC(CC(C3)C1)C2)c1ccc2ccccc2c1OCc1ccc(Cl)c(Cl)c1 [compound 89] |
| 477 | 42.2 | O=C(O)[C@@H](N1CN(Cc2ccc(SC(F)(F)F)cc2)c2c(ccc3ccccc23)C1=O)C12CC3CC(CC(C3)C1)C2 [compound 126, (2S)-2-(1-adamantyl)-2-[4-oxo-1-[[4-(trifluoromethylsulfanyl)phenyl]methyl]-2H-benzo[h]quinazolin-3-yl]acetic acid] |
| 196 | 150 | O=C(N[C@H](C(=O)O)C12CC3CC(CC(C3)C1)C2)c1ccc2cc(F)ccc2c1OCc1ccc(Cl)c(Cl)c1 [compound 55] |
| 296 | 92.5 | O=C(N[C@H](C(=O)O)C12CC3CC(CC(C3)C1)C2)c1ccc2cc(F)ccc2c1OCc1ccc(SC(F)(F)F)cc1 [compound 57] |
| 489 | 264 | Cc1ccc2ccc(C(=O)N[C@H](C(=O)O)C34CC5CC(CC(C5)C3)C4)c(OCc3ccc(OC(F)(F)F)cc3)c2c1 [compound 34] |
| 939 | 156 | O=C(N[C@H](C(=O)O)C12CC3CC(CC(C3)C1)C2)c1sc2ccccc2c1OCc1nc2ccccc2s1 [compound 95] |
| 879 | 134 | O=C(N[C@H](C(=O)O)C12CC3CC(CC(Br)(C3)C1)C2)c1ccc2cccnc2c1OCc1ccc(C(F)(F)F)cc1 [compound 67] |
| 406 | 156 | O=C(N[C@H](C(=O)O)C12CC3CC(CC(C3)C1)C2)c1cc(F)c2ccccc2c1OCc1ccc(C(F)(F)F)cc1 [compound 3] |
| 245 | 217 | CC12CC3(C)CC(C)(C1)CC([C@H](NC(=O)c1ccc4cccnc4c1OCc1ccc(C(F)(F)F)cc1)C(=O)O)(C2)C3 [compound 62] |
| 267 | 128 | COCCOC12CC3CC(C1)CC([C@H](NC(=O)c1ccc4ccccc4c1OCc1ccc(C(F)(F)F)cc1)C(=O)O)(C3)C2 [compound 43] |
| 903 | 171 | O=C(N[C@H](C(=O)O)C12CC3CC(CC(C3)C1)C2)c1ccc2ccccc2c1OCC1CCCCC1 [compound 52] |
